Data reported in PubChem BioAssay AID1996.
In brackets after ≈: the same amount, converted by molar mass.

Details: buffer; pH 7.4; 200.0 µM

Row | solubility kinetic | Compound
1 | 23.5 µg/mL (≈ 116 µM) | Cc1ccccc1NC(=O)c1ccno1
2 | < 0.7 µg/mL | CN(C(=O)c1ccccc1)C1c2c(ccc3ccccc23)OCC1CO (centres undefined)
3 | 48.9 µg/mL (≈ 148 µM) | CN(Cc1nc(-c2cnccn2)no1)Cc1cccc2ccccc12
4 | 4.9 µg/mL (≈ 12.6 µM) | CC(=O)c1ccc(-c2ccc(C(=O)Nc3nc(-c4ccccn4)cs3)o2)cc1
5 | 9.6 µg/mL (≈ 28.2 µM) | COc1ccc(NC(=O)CN2C(=O)C(C)Oc3ccc(C)cc32)cc1 (centres undefined)
6 | 39.3 µg/mL (≈ 120 µM) | COc1ccccc1N1CCN(C(=S)Nc2ccccc2)CC1
7 | > 36.2 µg/mL | NNC(=O)c1oc2ccccc2c1-n1cccc1
8 | 5.3 µg/mL | COc1ccc(Cl)cc1Nc1nc(N)c2ccccc2n1.Cl
9 | > 55.6 µg/mL | O=C(N/C(=C/c1ccccc1Cl)C(=O)N1CCOCC1)c1ccccc1
10 | 27.4 µg/mL (≈ 111 µM) | N#C/C(=C\c1cccnc1)c1nc2ccccc2[nH]1
11 | 0.7 µg/mL (≈ 1.89 µM) | COc1ccccc1CNC(=O)c1cc(-c2cccnc2)nc2ccccc12
12 | < 0.3 µg/mL | Cc1cc2ccccn2c1C(=O)Nc1cccc(Cl)c1
13 | > 30.2 µg/mL | COc1ccccc1-n1cccc1C=O
14 | > 40.8 µg/mL | C=C(C)C(=O)Nc1cccnc1Oc1ccc(F)cc1
15 | 46.7 µg/mL (≈ 141 µM) | COc1ccc(C(=O)n2cnc3ccccc32)cc1Br
16 | > 38.6 µg/mL | COc1cccc(NC(=O)NCc2ccccn2)c1
17 | 41.7 µg/mL (≈ 139 µM) | C#CCNC(=O)c1ccc(OCc2ccccc2)cc1Cl

The remaining lines, values behind:

Row | Compound | solubility kinetic
18 | O=C1COc2ccc(S(=O)(=O)N3CCCCCC3)cc2N1 | > 46.6 µg/mL
19 | O=C(CCC(=O)N1CCc2ccccc2C1)NCCc1ccc(Cl)cc1 | > 55.6 µg/mL
20 | Br.O=[N+]([O-])c1ccc(CSC2=NCCN2)cc1 | 43.2 µg/mL
21 | CCOC(=O)/C(C#N)=C/C=C1/C=CC=CN1C | > 34.5 µg/mL
22 | O/N=C/c1nc2cc(Cl)ccc2o1 | > 29.5 µg/mL
23 | C/C(Cn1ncc(N2CCOCC2)c(Cl)c1=O)=N\O | > 43 µg/mL
24 | CN1CCN(CCCNC(=O)Nc2ccc([N+](=O)[O-])cc2)CC1 | 44.8 µg/mL (≈ 139 µM)
25 | O=S(=O)(c1cccs1)N1CCN(c2ccccc2F)CC1 | 15.6 µg/mL (≈ 47.8 µM)
26 | CC1CCC(NC(=O)c2cccn2C)CC1 (centres undefined) | > 33 µg/mL
27 | COc1ccc(S(=O)(=O)NC2CCCCCC2)cc1C(N)=O | 11.9 µg/mL (≈ 36.5 µM)
28 | COc1cc(/C=C/[N+](=O)[O-])ccc1OC(=O)/C=C/c1ccc(F)cc1 | < 0.7 µg/mL
29 | COc1cccc(Oc2c(C)oc3c(CN4CCCC4)c(O)ccc3c2=O)c1 | 40.6 µg/mL (≈ 106 µM)
30 | CCC(=O)Nc1cccc(C(=O)OC)c1 | 29.4 µg/mL (≈ 142 µM)
31 | CN(C)S(=O)(=O)c1cccc(C(=O)NC2CCSc3ccccc32)c1 (centres undefined) | 4.8 µg/mL (≈ 12.7 µM)
32 | CCC1Oc2ccccc2N(CC(=O)N2CCOCC2)C1=O (centres undefined) | > 45.7 µg/mL
33 | O=C(CN1CCN(c2ccccc2F)CC1)NC(=O)NC1CCCCC1 | > 54.4 µg/mL

Row | Compound | solubility kinetic
34 | CC(=O)NN1CCc2cc3ccc(C)cc3nc21 | > 36.2 µg/mL
35 | CC1CN(C(=O)CCNC(=O)c2ccc(Cl)cc2)CC(C)O1 (centres undefined) | 42.1 µg/mL (≈ 130 µM)
36 | CN1CCN(C(=O)C23CC4CC(C)(CC(C)(C4)C2)C3)CC1.Cl | 47.8 µg/mL
37 | O=C(O)c1ccc(NS(=O)(=O)c2cc(Cl)sc2Cl)cc1 | > 52.8 µg/mL
38 | CSc1ccc(C(=S)N2CCCC2)cc1 | 29.6 µg/mL (≈ 125 µM)
39 | CC(NC(=S)Nc1cccc(C(F)(F)F)c1)C(C)(C)C (centres undefined) | 4.6 µg/mL (≈ 15.1 µM)
40 | CN(Cc1ccco1)C(=O)CN1C(=O)NC2(CCCC2)C1=O | 43 µg/mL (≈ 141 µM)
41 | CCC(=O)N1c2ccc(S(=O)(=O)N3CCCC3)cc2CC1C (centres undefined) | 33.5 µg/mL (≈ 104 µM)
42 | CN1/C(=C/C(=O)C2CC2)C(C)(C)c2ccccc21 | 8.3 µg/mL (≈ 34.4 µM)
43 | CC(Sc1nnc(C(F)(F)F)n1C)C(=O)Nc1ccc(N2CCOCC2)cc1 (centres undefined) | > 62.3 µg/mL
44 | CC(C)c1ccc(NC2=CC(=O)CC(C)(C)C2)cc1 | 2.6 µg/mL (≈ 10.1 µM)
45 | CCCCCC(=O)NC(=S)Nc1ccc2oc(=O)ccc2c1 | 1.5 µg/mL (≈ 4.71 µM)
46 | Cc1nonc1C(=O)N1CCCC(Nc2ccc(C(C)C)cc2)C1 (centres undefined) | 32.8 µg/mL (≈ 99.9 µM)
47 | Cc1csc(NC(=O)C2CC(=O)N(Cc3ccco3)C2)n1 (centres undefined) | > 45.8 µg/mL
48 | O=C(Nc1cccc(F)c1)Nc1cnccn1 | 6.1 µg/mL (≈ 26.3 µM)
49 | CC(C)C(=O)O/N=C1\CCS(=O)(=O)c2sccc21 | > 43.1 µg/mL
